Test results: patent US20050129687A1, “Use of inhibitors of PACAP receptor activity for treatment of overactive bladder and pelvic floor pain syndrome” (University of Vermont and State Agricultural College, priority 2003, published 2005)
Where no end group is shown, it is not given here.

Tests used:
[1] = tested on: rat with chronic CYP-induced cystitis; assay: Conscious cystometry in rats with chronic CYP-induced cystitis; format: in vivo
Method: (§1) Chemical cystitis was induced in adult female Wistar rats by cyclophosphamide (CYP), which is metabolized to acrolein, an irritant eliminated in the urine. CYP (Sigma ImmunoChemicals, St. Louis, Mo.) was administered in one of the following ways: (1) 4 hr (150 mg/kg; i.p.) prior to euthanasia of the animals to elicit acute inflammation (n=6); (2) 48 hr (150 mg/kg; i.p.) prior to euthanasia to examine an intermediate inflammation (n=6) or (3) administered every third day for 10 days to elicit chronic inflammation (n=8; 75 mg/kg; i.p). All injections of CYP were performed under isoflurane (2%) anesthesia.
(§2) Rats were anesthetized with isoflurane anesthesia (2-3%) and the atlanto-occiptal membrane was exposed by aseptic surgical technique. Polyethylene tubing (PE-10, Clay Adams, Parsippany, N.J.) was inserted under the membrane and passed to the lumbosacral spinal cord (L6-S1). Correct catheter placement was confirmed at time of euthanasia. The intrathecal catheter was secured in place with a small drop of dental cement and the incision was closed in two layers. The intravesical catheter was then inserted.
(§3) A lower midline abdominal incision was performed under general anesthesia (ketamine 60 mg/kg, xylazine 10 mg/kg, i.p.), and polyethylene tubing (PE-50) with the end flared by heat was inserted into the dome of the bladder and secured in place with a 6-0 nylon purse string suture. The distal end of the tubing was sealed, tunneled subcutaneously and externalized at the back of the neck, out of the animal's reach. Abdominal and neck incisions were closed with 4-0 nylon sutures. Animals were maintained for 72 hours after survival surgery to ensure complete recovery.
(§4) Control rats and rats treated with CYP (acute; 4 hr or intermediate; 48 hr) or SCI rats and also treated with a specific PACAP antagonist, PACAP6-38 or vehicle (0.9% saline), were evaluated with cystometry. For conscious cystometry, a rat was placed unrestrained in a cage. Prior to the start of the recording, the bladder was emptied and the catheter was connected via a T-tube to a pressure transducer (Grass® Model PT300, West Warwick, R.I.) and microinjection pump (Harvard Apparatus 22, South Natick, Mass.). We infused a 0.9% saline solution at room temperature into the bladder at a rate of 10 ml/hour. Intravesical pressure was recorded continuously using a Neurodata Acquisition System (Grass® Model 15, Astro-Med, Inc, West Warwick, R.I.). At least four reproducible micturition cycles were recorded after the initial stabilization period of 25-30 minutes. The following cystometric parameters were recorded in each animal: filling pressure (pressure at the beginning of the bladder filling), threshold pressure (bladder pressure immediately prior to micturition), micturition pressure (the maximal bladder pressure during micturition), micturition interval (time between micturition events), void volume and presence or absence of non-voiding bladder contractions (NVC). For the present study, NVCs were defined as increases in bladder pressure of at least 7 cm H2O without release of urine.
The effects of a specific PAC1 receptor antagonist, PACAP6-38 (i.t. or intravesical) (Peninsula Pharmaceuticals) or vehicle (0.9% saline, i.t. or intravesical; artificial cerebrospinal fluid, aCSF, i.t.) on lower urinary tract function in rats treated with CYP (4 hr, 48 hr or chronic cystitis) were evaluated. Separate groups of rats were used to evaluate the effects of PACAP6-38 given either through the i.t. catheter or the intravesical catheter. After recording at least three reproducible micturition cycles, PACAP6-38 or saline was administered through the catheters (i.t. or intravesical) and the effects evaluated.
All values are means±S.E.M. Comparisons of urodynamic parameters between control and experimental treatments were made using the Fischer exact test. […]

[2] = tested on: rat with chronic spinal cord injury (SCI); assay: Conscious cystometry in rats with chronic spinal cord injury (SCI); format: in vivo
Method: A complete spinal cord transaction was performed in adult, female rats anesthetized with isoflurane (2-3%). Animals received antibiotic and analgesic treatment following surgery. Animals were evaluated using conscious cystometry six-weeks following surgery when each animal had recovered automatic micturition. The University of Vermont IACUC approved all experimental procedures (protocol #02-108, 03-030, 03-148D) involving animal use. Animal care was under the supervision of the University of Vermont's Office of Animal Care in accordance with the Association for Assessment and Accreditation of Laboratory Animal Care and National Institutes of Health guidelines. All efforts were made to minimize animal stress/distress and suffering and to use the minimum number of animals. Currently, no alternatives exist to the use of whole, live animals in the present study.
as §2, §3, §4
All values are means±S.E.M. Comparisons of urodynamic parameters between control and experimental treatments were made using the […]. When F ratios exceeded the critical value (P≦0.05), the Dunnett's post-hoc test was used to compare the control mean with each experimental mean.

[3] = tested on: rat with acute (4 hr) CYP-induced cystitis; assay: Conscious cystometry in rat with acute (4 hr) CYP-induced cystitis, intravesical delivery; format: in vivo; settings: 200 nmol intravesically
Method: as §1, §3
Control rats and rats treated with CYP (acute; 4 hr or intermediate; 48 hr) or SCI rats and also treated with a specific PACAP antagonist, PACAP6-38 or vehicle (0.9% saline), were evaluated with cystometry. […] Intravesical pressure was recorded continuously using a Neurodata Acquisition System (Grass® Model 15, Astro-Med, Inc, West Warwick, R.I.). At least four reproducible micturition cycles were recorded after the initial stabilization period of 25-30 minutes. The following cystometric parameters were recorded in each animal: filling pressure (pressure at the beginning of the bladder filling), threshold pressure (bladder pressure immediately prior to micturition), micturition pressure (the maximal bladder pressure during micturition), micturition interval (time between micturition events), void volume and presence or absence of non-voiding bladder contractions (NVC). […]

tracheal muscles in cats = settings: cited from earlier work
[4] = 1 nmol intrathecally, rat with chronic CYP-induced cystitis (FIG. 1)
[5] = acute (4 hr) CYP-induced cystitis (FIG. 4)
[6] = 1 nmol intrathecally, rat with chronic SCI
[7] = 1 nmol, SCI rats compared to SCI rats treated with vehicle (aCSF) (FIG. 7)

Substance: Pituitary adenylate cyclase-activating polypeptide (HSDGIFTDSYSRYRKQMAVKKYLAAVLGKRYKQRVKNK; ends and bridges not checked) [PACAP, polypeptide hormone that stimulates adenylate cyclase in pituitary cells; used as agonist]
- effect of agonist on the PACAP6-38-induced change in intercontraction interval ([1]; rats treated chronically with CYP, after PACAP6-38 treatment): reversed
- effect of intrathecal agonist on the PACAP6-38-induced reduction of pressures ([2]; SCI rats, intrathecal, after PACAP6-38 (FIG. 7)): blocked this effect

Substance: Phe-Thr-Asp-Ser-Tyr-Ser-Arg-Tyr-Arg-Lys-Gln-Met-Ala-Val-Lys-Lys-Tyr-Leu-Ala-Ala-Val-Leu-Gly-Lys-Arg-Tyr-Lys-Gln-Arg-Val-Lys-Asn-Lys (FTDSYSRYRKQMAVKKYLAAVLGKRYKQRVKNK) [PACAP6-38]
- persistence of drug effects after administration ([1]; 1 nmol intrathecally, rat with chronic CYP-induced cystitis): at least 5 hours
- appearance of non-voiding bladder contractions [1, 4]: reduced
- intercontraction interval [1, 4]: increased
- intercontraction interval ([1]; rats treated chronically with CYP, 1 or 10 nmol (FIG. 3)): significantly lengthened
- Non-voiding bladder contractions per cycle (NVC/cycle) ([1]; rats treated chronically with CYP, compared to untreated rats with CYP-induced cystitis (FIG. 2)): significantly reduced
- persistence of drug effects after administration ([3]; acute (4 hr) CYP-induced cystitis): at least 2 hours
- appearance of non-voiding bladder contractions [3, 5]: reduced
- intercontraction interval [3, 5]: increased
- Non-voiding bladder contractions [2, 6]: not eliminated by treatment but reduced in pressure
- persistence of drug effects after administration [2, 6]: at least 5 hours
- micturition pressures ([2]; 1 nmol intrathecally, rat with chronic SCI (FIGS. 5 and 6)): reduced
- Intermicturition pressure [2, 7]: reduced
- micturition pressure [2, 7]: reduced
- threshold pressure [2, 7]: reduced
- inhibitory-NANC (non-adrenergic, non-cholinergic) relaxation (tracheal muscles in cats): partially but significantly inhibited
